From patent publication US7763615B2, “Ecteinascidin analogs for use as antitumour agents” (priority 2001, dated 2010)
Converted amounts (≈) assume the structure as drawn.

Legend:
physchem [1] = conditions: pH 7.4, log D n-Octanol-Dulbecco's PBS pH 7.4
[2] = tested on: FDC-P1, normal mouse myelogeous stem cells; conditions: 24 h
HT29 = test: cells; format: cell-based; conditions: Homo sapiens, HT-29, 48 h
Method in brief: (§1)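 Seeding density 5×10^3 cells/well; attachment 18 h in drug-free medium; exposure 48 h, 10 to 10^−8 μg/ml. Fixation cold TCA 60 min at 4° C, SRB 10 min, absorbance 490 nm.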

MEL-28 = test: cells; format: cell-based; conditions: Homo sapiens, SK-MEL-28, 48 h
Method in brief: as §1

A549 = test: cells; format: cell-based; conditions: Homo sapiens, A549, 48 h
Method in brief: as §1

MB231 = test: cells; format: cell-based; conditions: Homo sapiens
Method in brief: as §1

A498 = test: cells; format: cell-based; conditions: Homo sapiens
Method in brief: as §1

DU145 = test: cells; format: cell-based; conditions: Homo sapiens, DU-145, 48 h
Method in brief: as §1

SW-620 = test: cells; format: cell-based; conditions: Homo sapiens
Method in brief: as §1

MCF = test: cells; format: cell-based; conditions: Homo sapiens
Method in brief: as §1

in vitro = conditions: human, Caco-2
From the text: The intestinal epithelium permeability is a critical characteristic that determines the rate and extent of human absorption and ultimately the bioavailability of a drug candidate. Caco-2 permeability assay allows a rapid assessment of membrane permeability and thus helps to rank-order compounds in terms of their absorption potential.
The Caco-2 cell line is a human colon adenocarcinoma cell line that differentiates in culture and resembles the epithelial lining of the human small intestine.
The apparent permeability coefficients (Papp) was determined in the apical-to-basolateral (A-to-B) direction across the cell monolayers (TC-7 sub-clone of the Caco-2) cultured on polycarbonate membrane filters. Compounds were tested at 50 μM with at a final DMSO concentration of 1%. Samples were analyzed by HPLC-MS or HPLC-MS/MS.
The test compound was added to the apical side and the Papp was determined based on the rate of appearance of the test compound in the basolateral side after 2 h-incubation. Two reference compounds, propranolol (highly permeable) and ranitidine (poorly permeable), are tested in each assay as controls.

[3] = tested on: NRK-52E, normal rat kidney cells; conditions: 24 h
(HEPG2) = conditions: human, 24 h, 30 μM
Method: The toxic potential of compounds was investigated in vitro using primary human hepatocytes (HEPG2). The compounds were tested at 30 μM in duplicate with a final DMSO concentration of 1%. After incubation during 24 h at 37° C. the cell viability was determined by the conversion of oxided alarmarBlue (resazurin) to reduced alarmarBlue (resorufin). Chlorpromazine was used as reference compound. Results are expressed as a percent of inhibition of control values.

[4] = tested on: L8, normal rat skeletal muscle cells; conditions: 24 h
physchem [5] = conditions: pH 7.4, aqueous buffer, Solubility Dulbecco's PBS pH 7.4
[6] = tested on: AML-12, normal mouse liver cells; conditions: 24 h
CYP3A4 = CYP3A4 (Homo sapiens, UniProt P08684); test: in vitro; conditions: CYP3A4 (% inhibition)
Sequence of CYP3A4 (P08684 whole entry): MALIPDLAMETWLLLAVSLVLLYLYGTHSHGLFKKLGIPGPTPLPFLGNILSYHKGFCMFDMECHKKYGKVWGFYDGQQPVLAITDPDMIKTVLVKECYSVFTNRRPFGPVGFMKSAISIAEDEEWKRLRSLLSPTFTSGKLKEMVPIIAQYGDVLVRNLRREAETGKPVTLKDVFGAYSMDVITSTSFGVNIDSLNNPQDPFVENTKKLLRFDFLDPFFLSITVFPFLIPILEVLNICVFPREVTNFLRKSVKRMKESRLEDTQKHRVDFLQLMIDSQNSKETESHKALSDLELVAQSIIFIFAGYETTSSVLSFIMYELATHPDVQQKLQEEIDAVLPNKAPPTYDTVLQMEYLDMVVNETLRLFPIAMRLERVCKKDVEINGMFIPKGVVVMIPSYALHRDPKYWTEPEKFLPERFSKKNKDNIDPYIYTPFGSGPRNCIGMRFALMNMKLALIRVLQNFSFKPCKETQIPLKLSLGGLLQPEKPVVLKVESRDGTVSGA

[7] = s9, 60 min, 1 μM
[8] = tested on: H9c2 (2-1), normal rat cardiac muscle cells; conditions: 24 h
CYP2D6 = CYP2D6 (Homo sapiens, UniProt P10635); test: in vitro; conditions: CYP2D6 (% inhibition)
Sequence of CYP2D6 (P10635 whole entry): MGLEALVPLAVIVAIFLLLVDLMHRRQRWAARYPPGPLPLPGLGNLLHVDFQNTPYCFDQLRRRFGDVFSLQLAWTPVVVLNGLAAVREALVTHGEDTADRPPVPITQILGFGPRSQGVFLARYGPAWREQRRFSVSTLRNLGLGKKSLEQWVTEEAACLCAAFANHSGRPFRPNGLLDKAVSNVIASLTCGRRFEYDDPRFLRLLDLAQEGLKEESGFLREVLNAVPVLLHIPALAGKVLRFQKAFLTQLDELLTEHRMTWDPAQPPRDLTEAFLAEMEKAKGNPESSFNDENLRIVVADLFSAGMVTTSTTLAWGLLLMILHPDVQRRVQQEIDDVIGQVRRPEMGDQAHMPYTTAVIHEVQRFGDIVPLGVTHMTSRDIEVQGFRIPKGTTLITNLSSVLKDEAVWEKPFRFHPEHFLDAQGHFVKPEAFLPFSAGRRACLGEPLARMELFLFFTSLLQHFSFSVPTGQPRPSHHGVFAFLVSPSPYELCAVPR
Method: For CYP2D6 inhibition assay, the compound are tested at 10 μM in duplicate with a 0.25% final concentration of both methanol and acetonitrile in presence of the fluorescent substrate AMMC (3-[2-N,N-diethyl-N-methylammonium)ethyl]-7-methoxy-4-methylcoumarin) at the concentration of 1.5 μM). The conversion of the AMMC in AHMC (3-[2-N,N-diethyl-N-methylammonium)ethyl]-7-hydroxy-4-methylcoumarin) is determined spectrofluorimetry after incubation with the enzyme during 450 min at 37° C.
For both assays, the fluorescent intensity measured at t=0 is subtracted from that measured after the appropriate incubation time. The ratio of signal-to-noise is calculated by comparing the fluorescence in incubations containing the test compound to the control samples containing the same solvent vehicle. The percent of control activity is calculated and reported as percent inhibition.

COc1c(C)cc2c(c1O)[C@@H]1C3[C@@H]4SC[C@]5(C(=O)COC[C@@H](c6c7c(c(C)c(OC(C)=O)c64)OCO7)N3[C@@H](O)[C@H](C2)N1C)c1[nH]c2ccc(O)cc2c1CCN5C (stereo partly drawn) [Compound 33] showed a logD at 60 min (physchem [1]) of 3.5, a Myelo [2] of 1.92E−08 and a GI50 (HT29; HT29, 48 hours exposure, SRB) of 0.255 nM. For the same molecule, the IC (TGI) (HT29; HT29, 48 hours exposure, SRB) was 0.764 nM, the CC50 (HT29; read-out: LC50, HT29, 48 hours exposure, SRB) was 1.15 nM and the GI50 (MEL-28; MEL-28, 48 hours exposure, SRB) was 0.255 nM. For the same molecule, the IC (TGI) (MEL-28; MEL-28, 48 hours exposure, SRB) was 0.637 nM, the CC50 (MEL-28; read-out: LC50, MEL-28, 48 hours exposure, SRB) was 1.15 nM and the GI50 (A549; A549, 48 hours exposure, SRB, read-out: GI50) was 0.382 nM. For the same molecule, the CC50 (A549; read-out: LC50, A549, 48 hours exposure, SRB) was 5.1 nM, the IC (TGI) (A549; read-out: TGI) was 1.27 nM and the CC50 (MB231; 48 h, read-out: LC50) was 12.7 nM. For the same molecule, the IC (TGI) (MB231; 48 h, read-out: TGI) was 1.27 nM, the GI50 (MB231; MB231, 48 hours exposure, SRB) was 0.255 nM and the CC50 (A498; A498, 48 h, read-out: LC50) was 1.27 nM. For the same molecule, the GI50 (A498; A498, 48 hours exposure, SRB) was 0.255 nM, the IC (TGI) (A498; A498, 48 hours exposure, SRB) was 0.51 nM and the GI50 (DU145; DU145, 48 hours exposure, SRB) was 0.382 nM. It also gave an IC (TGI) (DU145; DU145, 48 hours exposure, SRB) of 0.892 nM, a CC50 (DU145; read-out: LC50, DU145, 48 hours exposure, SRB) of 3.82 nM and a CC50 (SW-620; SW-620, 48 h, read-out: LC50) of 10.2 nM. It also gave an IC (TGI) (SW-620; SW-620, 48 hours exposure, SRB) of 1.15 nM, a GI50 (SW-620; SW-620, 48 hours exposure, SRB, read-out: GI50) of 0.255 nM and a CC50 (MCF; 48 h, read-out: LC50) of 11.5 nM. It also gave a GI50 (MCF; MCF, 48 hours exposure, SRB) of 1.02 nM, an IC (TGI) (MCF; MCF, 48 hours exposure, SRB, read-out: TGI) of 2.55 nM and a Papp A→B at 2 h, 50 μM (in vitro) of 7.77 ×10⁻⁶ cm/s. The Kidney [3] was 7.78E−09, the “Cell Viability (% inhibition)” value ((HEPG2)) was 32 % inhibition and the Skeletal [4] was 1.41E−08. For the same molecule, the solubility (physchem [5]) was 68.9 µM (≈ 55.1 µg/mL), the Liver [6] was 1.05E−08 and the inhibition at 30 min, 10 µM (CYP3A4) was 84%. For the same molecule, the “Human Liver S9 Metabolic Stability (% remaining)” value [7] was 10 % remaining, the Heart [8] was 1.27E−06 and the inhibition at 450 min, 10 µM (CYP2D6) was 28%.
